Measurements taken from publication PMC12006171, “Marsupial cathelicidins: characterization, antimicrobial activity and evolution in this unique mammalian lineage” (Frontiers in Immunology, 2025).
In brackets after ≈: the same amount, converted by molar mass. Like-named read-outs stand apart in the source and are kept apart here. Where a SMILES comes first, the peptide text is derived from it.

Experiments:
[1] = system: Staphylococcus aureus ATCC 29213; experiment: microbe, parasite or virus in culture; type: cell-based; conditions: ATCC 29213
Summary of the method: (§1)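 CLSI broth microdilution, MHB ± cations ± 10% lysed horse blood; peptide 64-0.125μg/mL final, duplicates; 5 x 10^5 CFU/mL; 35°C, 20–24 h; MIC = no visible growth.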

[2] = system: Escherichia coli ATCC 25922; experiment: microbe, parasite or virus in culture; type: cell-based; conditions: ATCC 25922
Summary of the method: as §1

[3] = system: Staphylococcus aureus clinical isolate - animal; experiment: microbe, parasite or virus in culture; type: cell-based; conditions: clinical isolate - animal
Summary of the method: as §1

[4] = system: Pseudomonas aeruginosa clinical isolate - animal; experiment: microbe, parasite or virus in culture; type: cell-based; conditions: clinical isolate - animal; read-out: MIC P. aeruginosa
Summary of the method: as §1

[5] = system: Escherichia coli clinical isolate - animal; experiment: microbe, parasite or virus in culture; type: cell-based; conditions: clinical isolate - animal
Summary of the method: as §1

[6] = system: Pseudomonas aeruginosa ATCC 27853; experiment: microbe, parasite or virus in culture; type: cell-based; conditions: ATCC 27853; read-out: MIC P. aeruginosa ATCC
Summary of the method: as §1

[7] = system: Staphylococcus aureus clinical isolate – animal, penicillin-resistant (PRSA); type: cell-based; conditions: clinical isolate – animal, penicillin-resistant (PRSA)
Summary of the method: (§2)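 Broth microdilution per CLSI M07-A/M26A; peptides in DMSO, final 64-0.125 μg/mL, inoculum 5 x 10^5 CFU/mL. Bacteria in MHB ± 10% lysed horse blood ± Ca/Mg cations, yeasts in RPMI-1640 MOPS; 35°C for 20–24 h. MIC is lowest concentration without visible growth.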

[8] = system: Staphylococcus aureus clinical isolate – animal, methicillin-resistant (MRSA); type: cell-based; conditions: clinical isolate – animal, methicillin-resistant
Summary of the method: as §2

[9] = system: Streptococcus agalactiae Clinical isolate - animal; experiment: microbe, parasite or virus in culture; type: cell-based; conditions: clinical isolate - animal
Summary of the method: as §2

[10] = system: Streptococcus agalactiae ATCC 12386; experiment: microbe, parasite or virus in culture; type: cell-based; conditions: ATCC 12386; read-out: MIC S. agalactiae ATCC
Summary of the method: as §2

[11] = system: Streptococcus pneumoniae ATCC 49619; experiment: microbe, parasite or virus in culture; type: cell-based; conditions: ATCC 49619; read-out: MIC S. pneumoniae ATCC
Summary of the method: as §2

[12] = system: S. aureus ATCC 29213; experiment: Killing kinetics (time kill assay); type: cell-based, Staphylococcus aureus; conditions: MHB, 35°C, sampled 1-24 hours, n = 2
Protocol: The killing kinetics assay was conducted using mid-logarithmic phase cultures of E. coli ATCC 25922 and S. aureus ATCC 29213 in MHB. Cultures were adjusted to a 0.5 McFarland standard, diluted in MHB, and then 100µL was added to each culture tube containing 10mL pre-warmed MHB to give a final inoculum concentration of 5 x 10^5 CFU/mL. A sterility control of 100uL MHB, growth control (no cathelicidin), and vehicle control (DMSO) were also included. Furthermore, 10uL was immediately removed from the growth control tube, diluted 1/1000 in saline and 100µL plated onto MHA in duplicate to confirm inoculum density. To establish colony counts from 0 hours of cathelicidin treatment, 200µL was removed from each culture tube and serially diluted ten-fold in saline from 10^0 to […] in a total volume of 200µL. Then, 10µL of each dilution was spotted onto MHA in duplicate, which were incubated at 35°C for 24 hours.
All culture tubes were then incubated at 35°C static. At 1, 2, 4, 6, 8, 10, 12, and 24 hours post-cathelicidin treatment, 200µL was removed from each culture tube for dilution and plated on MHA as described above. […] Counts of duplicates were averaged, and the log10 CFU/mL graphed against time. This was used as input for one-way ANOVA (p < 0.05) followed by Dunnett’s post hoc test.

[13] = system: six bacteria (S. aureus, E. coli, P. aeruginosa; ATCC and clinical isolate); type: cell-based; conditions: synthesized mature peptide
Summary of the method: as §1

[14] = system: three fungi (Candida krusei, Candida parapsilosis, Candida albicans); experiment: Antifungal screening, summary over the panel of fungi (broth microdilution); type: cell-based; conditions: synthesized mature peptide
Protocol: Antimicrobial testing of 78 cathelicidin MPs was performed in two phases as outlined in Figure 1 . In phase I, 40 peptides (27 extant and 13 ancestral) were selected for testing based on rank (outlined above) and similarity to published marsupial cathelicidins with known antimicrobial activity ([33], [41]–[43]). These peptides were tested against nine bacteria (Staphylococcus aureus ATCC 29213 and clinical isolate, Escherichia coli ATCC 25922 and clinical isolate, Pseudomonas aeruginosa ATCC 27853 and clinical isolate, Streptococcus agalactiae ATCC 12386 and clinical isolate, Streptococcus pneumoniae ATCC 49619) and three fungi (Candida krusei ATCC 6258, Candida parapsilosis ATCC 22019, and Candida albicans clinical isolate). Details regarding these strains are available in Supplementary Table 4 . The antimicrobial activity of cathelicidins was determined as the minimum inhibitory concentration (MIC), which was the lowest concentration of cathelicidin that prevented visible bacterial or fungal growth, relative to the negative control. […] Minimum bactericidal concentration (MBC) and/or minimum fungicidal concentration (MFC) was conducted to determine microbicidal versus static action. Activity against S. aureus ATCC, E. coli ATCC, and Pseudomonas aeruginosa ATCC 27853 was examined in the presence of divalent cations to determine the impact of inhibitors.
Antimicrobial activity was determined using a broth microdilution susceptibility assay in 96 well polypropylene plates according to Clinical Laboratory Standards Institute guidelines M07-A and M26A as described previously ([33], [42], [43]). The bacterial and fungal isolates from humans and animals used in this study are outlined in Supplementary Table 4 . Only yeasts were included in the panel of fungi as they have been used in the susceptibility testing of eutherian ([3], [81]–[83]) and other marsupial cathelicidins previously ([33], [42], [43]). Cathelicidin mature peptides were solubilized in DMSO and serially diluted in duplicate from 128-0.25μg/mL in a final volume of 100µL. For bacteria, cathelicidins were diluted in Mueller Hinton Broth (MHB) with or without 10% lysed horse blood, and with (MH II B) or without (MHB) calcium and magnesium cations. For fungi, cathelicidins were diluted in Roswell Park Memorial Institute medium (RPMI)-1640 MOPS. Ampicillin or tetracycline were included as a positive control for Gram-positive and -negative bacteria respectively, while amphotericin B was used for fungi. A media-only negative control and growth control (no cathelicidin) were also included on each plate. Bacteria were sub-cultured on Muller Hinton agar (MHA) or sheep blood agar (BA), and fungi on Sabouraud dextrose agar (SAB), 20–24 hours prior to the test. Colonies were suspended in saline, the concentration adjusted to a 0.5 McFarland standard, and then diluted in media to a concentration of 1.0 x 10^6 cells/mL. Then, 100μL was added to each well of the cathelicidin dilution plate, giving a final inoculum density of 5 x 10^5 CFU/mL and cathelicidin concentration of 64-0.125μg/mL. Colony counts were performed on MHA/BA/SAB to confirm inoculum density. All plates were incubated at 35°C for 20–24 hours, depending on the strain.
Colonies were counted and compared to the colony count of the starting inoculum.

CC[C@H](C)[C@H](NC(=O)[C@H](CCCCN)NC(=O)[C@H](CC(N)=O)NC(=O)[C@H](CC(C)C)NC(=O)CNC(=O)[C@H](CCC(N)=O)NC(=O)CNC(=O)[C@H](CC(C)C)NC(=O)[C@H](CCCCN)NC(=O)[C@H](CCSC)NC(=O)[C@H](Cc1c[nH]c2ccccc12)NC(=O)CNC(=O)[C@H](CCCCN)NC(=O)[C@H](CCCCN)NC(=O)[C@H](CCC(=O)O)NC(=O)[C@H](Cc1c[nH]cn1)NC(=O)[C@H](CCCNC(=N)N)NC(=O)[C@H](CCCCN)NC(=O)[C@@H](NC(=O)[C@@H](N)CCCCN)[C@@H](C)CC)C(=O)N[C@@H](CC(C)C)C(=O)N[C@@H](CCCCN)C(=O)N[C@@H](Cc1c[nH]cn1)C(=O)N[C@@H](Cc1ccccc1)C(=O)N[C@@H](CC(N)=O)C(=O)N[C@H](C(=O)N[C@@H](CC(=O)O)C(=O)N[C@@H](Cc1ccccc1)C(=O)N[C@@H](CS)C(=O)N[C@@H](CC(C)C)C(=O)N[C@@H](CC(N)=O)C(=O)N[C@@H](CS)C(=O)O)[C@@H](C)CC [LalaCath3] (H-KIKRHEKKGWMKLGQGLNKILKHFNIDFCLNC-OH; N-terminus and C-terminus assumed)
MBC S. aureus ATCC [1]: 4.1 µM (≈ 15.8 µg/mL) | MIC ([1]; read-out: MIC S. aureus ATCC): 2 µM (≈ 7.68 µg/mL) | MIC ([1]; read-out: MIC in the presence of cations S. aureus ATCC): 2 µM | MBC E. coli ATCC [2]: 8.3 (8.3)^8.3 µM | MIC E. coli ATCC [2]: 8.3 (8.3)^8.3 µM | MIC in the presence of cations E. coli ATCC [2]: 8.3 (8.3)^8.3 µM | MBC S. aureus [3]: 4.1 µM (≈ 15.8 µg/mL) | MIC ([3]; read-out: MIC S. aureus): 2 µM (≈ 7.68 µg/mL) | MIC ([3]; read-out: MIC in the presence of cations S. aureus): 2 µM | MIC [4]: >16.6 µM | MBC E. coli [5]: 16.6 (16.6)^>16.6 µM | MIC E. coli [5]: 16.6 (16.6)^>16.6 µM | MIC in the presence of cations E. coli [5]: 16.6 (16.6)^>16.6 µM | MIC [6]: >16.6 µM | MBC PRSA [7]: 2 µM (≈ 7.68 µg/mL) | MIC PRSA [7]: 1 µM (≈ 3.84 µg/mL) | MBC MRSA [8]: 4.1 µM (≈ 15.8 µg/mL) | MIC MRSA [8]: 2 µM (≈ 7.68 µg/mL) | MBC S. agalactiae [9]: 8.3 µM (≈ 31.9 µg/mL) | MIC S. agalactiae [9]: 8.3 µM (≈ 31.9 µg/mL) | MIC [10]: >16.6 µM | MIC [11]: >16.6 µM | Number of hours to cause a significant reduction in log CFU/mL of S. aureus ATCC (p < 0.05) ([12]; 0.5x MIC): 4 hours | Number of hours to cause a significant reduction in log CFU/mL of S. aureus ATCC (p < 0.05) ([12]; 2x MIC): 2 hours | Number of hours to cause a significant reduction in log CFU/mL of S. aureus ATCC (p < 0.05) ([12]; MIC): 4 hours

RQRRLPFLGDPRRFPRPRGRPQPDPRQGRPN [MAP4, marsupial ancestral peptide, predicted by ANCESCON and GASP, synthesized]
Antibacterial (MIC <64ug/mL) ([13]; antimicrobial screening Phase I, Y/N summary over bacteria tested, broth microdilution): N (Antibacterial (MIC <64ug/mL)) | Antifungal (MIC <64ug/mL) ([14]; antimicrobial screening Phase I, Y/N summary over fungi tested, broth microdilution): N (Antifungal (MIC <64ug/mL))

RSKRSSSLEEIDIDSLPPKVKEIYYRGIDDAIGGILRNF [TrvuCath4]
Antibacterial (MIC <64ug/mL) ([13]; broth microdilution screening, phase I or II, Y/N summary over the bacteria tested): N (Antibacterial (MIC <64ug/mL)) | Antifungal (MIC <64ug/mL) ([14]; broth microdilution screening, phase I, Y/N summary over the fungi tested): N (Antifungal (MIC <64ug/mL))
